Patent US20220354805A1, “Cannabidiol (CBD) as Chemical for Treating Aging-related Degenerative Diseases and Promoting Health Aging” (Hemix Biotech Limited, priority 2021, published 2022)

Experiments:
[1] = system: premature aging LMNA^G609G/G609G mice; test: Healthspan analysis of LMNA^G609G/G609G mice; type: in vivo, mouse
Protocol: In the step of analyzing the healthspan of LMNA^G609G/G609G mice, for chemical treatment in mice, 2 months old LMNA^G609G/G609G mice were used. They received an intraperitoneal injection (IP) twice a week until they reached the humane point. Different dosages were used for the injection, 50 mg/kg of CBD was identified as the optimal dosage with the greatest extend in healthspan of the treated mice. CBD was dissolved in 5% DMSO and 5% polyethylene glycol (PEG) in sterile saline and stored at −80° C. for up to 1 month.

[2] = system: ATF5, CEBPα and TRIB3 in skin of LMNA^G609G/G609G mice; test: Immunofluorescence staining of mouse skin; type: in vivo; details: CBD treated premature aging mice
Protocol: The tissue sections were washed twice with PBS and incubated in PBSTr (0.1% Triton X-100 in PBS) for 10 minutes. Then the cells were blocked with 5% fetal bovine serum (FBS) in PBSTr for 1 hour at room temperature. Primary antibodies diluted in 5% FBS in PBSTr were added and incubated at 4° C. overnight. On the following day, the cells were washed three times using PBSTr, incubation for 10 minutes each time. Secondary antibodies diluted in 5% FBS in PBSTr were added and incubated at room temperature for 1 hour. The cells were again washed three times using PBSTr, followed by PBS for two times. The slides were mounted with SlowFade Gold antifade reagent. Then the slides were ready to be analyzed under a confocal microscope.

[3] = 50 mg/kg CBD IP twice a week from 2 months old

## C=C(C)[C@@H]1CCC(C)=C[C@H]1c1c(O)cc(CCCCC)cc1O [CBD, Cannabidiol]
[1]; [3]
  increase in maximum healthspan: 19.8%
  increase in median healthspan: 8%
[1]; 50 mg/kg CBD twice a week from 2 months old
  increase of healthspan (FIG. 6b legend): 11.2%
[1]; IP twice a week, from 2 months old
  optimal dosage (greatest extend in healthspan): 50 mg/kg
[2]
  ATF5 protein level decrease in skin: reversed
  CEBPα protein level decrease in skin: reversed
  TRIB3 protein level decrease in skin: reversed
